# Source: PMC8364686, “Safety, tolerability, pharmacokinetics and pharmacodynamics of single oral doses of BI 187004, an inhibitor of 11beta-hydroxysteroid dehydrogenase-1, in healthy male volunteers with overweight or obesity” (Clinical Diabetes and Endocrinology, 2021)
# Assay: Plasma pharmacokinetics of BI 187004 after single oral doses (LC–MS/MS)
# Conditions: male, human, plasma, po
smiles,measurement,setting,value
N#Cc1ccc2c(c1)[C@H]1CCCN(C(=O)c3ccc4[nH]cnc4c3)[C@H]1C2 [BI 187004],concentration at 2.5 h,"2.5 mg, Plasma concentration gMean, 2.5 mg single oral, 2.5 h",7.33 nM
same,concentration at 3 h,"2.5 mg, Plasma concentration gMean, 2.5 mg single oral, 3 h",6.19 nM
same,concentration at 4 h,"2.5 mg, Plasma concentration gMean, 2.5 mg single oral, 4 h",5.87 nM
same,concentration at 5 h,"2.5 mg, Plasma concentration gMean, 2.5 mg single oral, 5 h",6.61 nM
same,concentration at 6 h,"2.5 mg, Plasma concentration gMean, 2.5 mg single oral, 6 h",5.38 nM
same,concentration at 10 h,"2.5 mg, Plasma concentration gMean, 2.5 mg single oral, 10 h",4.38 nM
same,concentration at 12 h,"2.5 mg, Plasma concentration gMean, 2.5 mg single oral, 12 h",4.53 nM
same,concentration at 24 h,"2.5 mg, Plasma concentration gMean, 2.5 mg single oral, 24 h",4.54 nM
same,concentration at 48 h,"2.5 mg, Plasma concentration gMean, 2.5 mg single oral, 48 h",3.93 nM
same,concentration at 8 h,"2.5 mg, Plasma concentration, individual subjects, 2.5 mg single oral, planned time 8 h",6.73 nM
same,concentration at 10 h,"2.5 mg, Plasma concentration, individual subjects, 2.5 mg single oral, planned time 10 h",5.99 nM
same,concentration at 12 h,"2.5 mg, Plasma concentration, individual subjects, 2.5 mg single oral, planned time 12 h",6.44 nM
same,concentration at 24 h,"2.5 mg, Plasma concentration, individual subjects, 2.5 mg single oral, planned time 24 h",4.19 nM
same,concentration at 36 h,"2.5 mg, Plasma concentration, individual subjects, 2.5 mg single oral, planned time 36 h",5.06 nM
same,concentration at 48 h,"2.5 mg, Plasma concentration, individual subjects, 2.5 mg single oral, planned time 48 h",3.58 nM
same,concentration at 72 h,"2.5 mg, Plasma concentration, individual subjects, 2.5 mg single oral, planned time 72 h",3.34 nM
same,concentration at 96 h,"2.5 mg, Plasma concentration, individual subjects, 2.5 mg single oral, planned time 96 h",3.04 nM
same,AUC(0-inf),5 mg,2.5 µM·h
same,AUC(0-t),5 mg,1.49 µM·h
same,Cmax,5 mg,150 nM
same,Tmax,5 mg,1 h
same,Vd/F,5 mg,281 L
same,half-life,5 mg,33.5 h
same,concentration at 24 h,"5 mg, C24 gMean (%gCV), 5 mg single oral dose",30 nM
same,concentration at 0.5 h,"5 mg, Plasma concentration Mean, 5 mg single oral",101 nM
same,concentration at 1 h,"5 mg, Plasma concentration Mean, 5 mg single oral, 1 h",147 nM
same,concentration at 1.5 h,"5 mg, Plasma concentration Mean, 5 mg single oral, 1.5 h",135 nM
same,concentration at 2 h,"5 mg, Plasma concentration Mean, 5 mg single oral, 2 h",122 nM
same,concentration at 2.5 h,"5 mg, Plasma concentration Mean, 5 mg single oral, 2.5 h",123 nM
same,concentration at 3 h,"5 mg, Plasma concentration Mean, 5 mg single oral, 3 h",114 nM
same,concentration at 4 h,"5 mg, Plasma concentration Mean, 5 mg single oral, 4 h",105 nM
same,concentration at 5 h,"5 mg, Plasma concentration Mean, 5 mg single oral, 5 h",97.4 nM
same,concentration at 6 h,"5 mg, Plasma concentration Mean, 5 mg single oral, 6 h",81.2 nM
same,concentration at 8 h,"5 mg, Plasma concentration Mean, 5 mg single oral, 8 h",72.9 nM
same,concentration at 10 h,"5 mg, Plasma concentration Mean, 5 mg single oral, 10 h",58 nM
same,concentration at 12 h,"5 mg, Plasma concentration Mean, 5 mg single oral, 12 h",49.7 nM
same,concentration at 24 h,"5 mg, Plasma concentration Mean, 5 mg single oral, 24 h",31 nM
same,concentration at 36 h,"5 mg, Plasma concentration Mean, 5 mg single oral, 36 h",14.9 nM
same,concentration at 48 h,"5 mg, Plasma concentration Mean, 5 mg single oral, 48 h",13.1 nM
same,concentration at 72 h,"5 mg, Plasma concentration Mean, 5 mg single oral, 72 h",7.42 nM
same,concentration at 96 h,"5 mg, Plasma concentration Mean, 5 mg single oral, 96 h",4.78 nM
same,concentration at 0.5 h,"5 mg, Plasma concentration Median, 5 mg single oral",128 nM
same,concentration at 1 h,"5 mg, Plasma concentration Median, 5 mg single oral, 1 h",141 nM
same,concentration at 1.5 h,"5 mg, Plasma concentration Median, 5 mg single oral, 1.5 h",140 nM
same,concentration at 2 h,"5 mg, Plasma concentration Median, 5 mg single oral, 2 h",126 nM
same,concentration at 2.5 h,"5 mg, Plasma concentration Median, 5 mg single oral, 2.5 h",121 nM
same,concentration at 3 h,"5 mg, Plasma concentration Median, 5 mg single oral, 3 h",113 nM
same,concentration at 4 h,"5 mg, Plasma concentration Median, 5 mg single oral, 4 h",98.4 nM
same,concentration at 5 h,"5 mg, Plasma concentration Median, 5 mg single oral, 5 h",98.1 nM
same,concentration at 6 h,"5 mg, Plasma concentration Median, 5 mg single oral, 6 h",78.8 nM
same,concentration at 8 h,"5 mg, Plasma concentration Median, 5 mg single oral, 8 h",71 nM
same,concentration at 10 h,"5 mg, Plasma concentration Median, 5 mg single oral, 10 h",57.1 nM
same,concentration at 12 h,"5 mg, Plasma concentration Median, 5 mg single oral, 12 h",50.3 nM
same,concentration at 24 h,"5 mg, Plasma concentration Median, 5 mg single oral, 24 h",32.2 nM
same,concentration at 36 h,"5 mg, Plasma concentration Median, 5 mg single oral, 36 h",15.5 nM
same,concentration at 48 h,"5 mg, Plasma concentration Median, 5 mg single oral, 48 h",11.2 nM
same,concentration at 72 h,"5 mg, Plasma concentration Median, 5 mg single oral, 72 h",6.1 nM
same,concentration at 96 h,"5 mg, Plasma concentration Median, 5 mg single oral, 96 h",4.24 nM
same,concentration at 0.5 h,"5 mg, Plasma concentration gMean, 5 mg single oral",63.7 nM
same,concentration at 1 h,"5 mg, Plasma concentration gMean, 5 mg single oral, 1 h",144 nM
same,concentration at 1.5 h,"5 mg, Plasma concentration gMean, 5 mg single oral, 1.5 h",134 nM
same,concentration at 2 h,"5 mg, Plasma concentration gMean, 5 mg single oral, 2 h",121 nM
same,concentration at 2.5 h,"5 mg, Plasma concentration gMean, 5 mg single oral, 2.5 h",122 nM
same,concentration at 3 h,"5 mg, Plasma concentration gMean, 5 mg single oral, 3 h",113 nM
same,concentration at 4 h,"5 mg, Plasma concentration gMean, 5 mg single oral, 4 h",104 nM
same,concentration at 5 h,"5 mg, Plasma concentration gMean, 5 mg single oral, 5 h",96 nM
same,concentration at 6 h,"5 mg, Plasma concentration gMean, 5 mg single oral, 6 h",79.9 nM
same,concentration at 8 h,"5 mg, Plasma concentration gMean, 5 mg single oral, 8 h",71.8 nM
same,concentration at 10 h,"5 mg, Plasma concentration gMean, 5 mg single oral, 10 h",56.8 nM
same,concentration at 12 h,"5 mg, Plasma concentration gMean, 5 mg single oral, 12 h",48.5 nM
same,concentration at 24 h,"5 mg, Plasma concentration gMean, 5 mg single oral, 24 h",30 nM
same,concentration at 36 h,"5 mg, Plasma concentration gMean, 5 mg single oral, 36 h",14.2 nM
same,concentration at 48 h,"5 mg, Plasma concentration gMean, 5 mg single oral, 48 h",12.5 nM
same,concentration at 72 h,"5 mg, Plasma concentration gMean, 5 mg single oral, 72 h",7.05 nM
same,concentration at 96 h,"5 mg, Plasma concentration gMean, 5 mg single oral, 96 h",4.6 nM
same,concentration at 1 h,"5 mg, Plasma concentration, individual subjects, 5 mg single oral, planned time 1 h",112 nM
same,concentration at 1.5 h,"5 mg, Plasma concentration, individual subjects, 5 mg single oral, planned time 1.5 h",144 nM
same,concentration at 2 h,"5 mg, Plasma concentration, individual subjects, 5 mg single oral, planned time 2 h",127 nM
same,concentration at 2.5 h,"5 mg, Plasma concentration, individual subjects, 5 mg single oral, planned time 2.5 h",122 nM
same,concentration at 3 h,"5 mg, Plasma concentration, individual subjects, 5 mg single oral, planned time 3 h",118 nM
same,concentration at 4 h,"5 mg, Plasma concentration, individual subjects, 5 mg single oral, planned time 4 h",99.5 nM
same,concentration at 5 h,"5 mg, Plasma concentration, individual subjects, 5 mg single oral, planned time 5 h",96.9 nM
same,concentration at 6 h,"5 mg, Plasma concentration, individual subjects, 5 mg single oral, planned time 6 h",80.6 nM
same,concentration at 8 h,"5 mg, Plasma concentration, individual subjects, 5 mg single oral, planned time 8 h",72.1 nM
same,concentration at 24 h,"5 mg, Plasma concentration, individual subjects, 5 mg single oral, planned time 24 h",35.1 nM
same,concentration at -0.5 h,"5 mg, Plasma concentration, individual subjects, 5 mg single oral, planned time –0.5 h",90.2 nM
same,AUC(0-inf),10 mg,5.91 µM·h
same,AUC(0-t),10 mg,4.38 µM·h
same,Cmax,10 mg,502 nM
same,Tmax,10 mg,1 h
same,Vd/F,10 mg,169 L
same,half-life,10 mg,23.7 h
same,concentration at 24 h,"10 mg, C24 gMean (%gCV), 10 mg single oral dose",71.3 nM
same,concentration at 0.5 h,"10 mg, Plasma concentration Mean, 10 mg single oral",365 nM
same,concentration at 1 h,"10 mg, Plasma concentration Mean, 10 mg single oral, 1 h",429 nM
same,concentration at 1.5 h,"10 mg, Plasma concentration Mean, 10 mg single oral, 1.5 h",438 nM
same,concentration at 2 h,"10 mg, Plasma concentration Mean, 10 mg single oral, 2 h",382 nM
same,concentration at 2.5 h,"10 mg, Plasma concentration Mean, 10 mg single oral, 2.5 h",376 nM
same,concentration at 3 h,"10 mg, Plasma concentration Mean, 10 mg single oral, 3 h",339 nM
same,concentration at 4 h,"10 mg, Plasma concentration Mean, 10 mg single oral, 4 h",346 nM
same,concentration at 5 h,"10 mg, Plasma concentration Mean, 10 mg single oral, 5 h",277 nM
same,concentration at 6 h,"10 mg, Plasma concentration Mean, 10 mg single oral, 6 h",260 nM
same,concentration at 8 h,"10 mg, Plasma concentration Mean, 10 mg single oral, 8 h",213 nM
same,concentration at 10 h,"10 mg, Plasma concentration Mean, 10 mg single oral, 10 h",182 nM
same,concentration at 12 h,"10 mg, Plasma concentration Mean, 10 mg single oral, 12 h",146 nM
